Values of other authors in US20190142336A1, “SYSTEMS AND METHODS FOR DETERMINING RESPONSE TO ANESTHETIC AND SEDATIVE DRUGS USING MARKERS OF BRAIN FUNCTION” (THE GENERAL HOSPITAL CORPORATION, priority 2016, published 2019).

How the values were obtained:
[1] = system: dopamine and norepinephrine reuptake transporters
[2] = plethysmography and blood gas

Row | SMILES | behavioral and respiratory effects induced by methylphenidate ([1]; given against methylphenidate-induced arousal) | minute ventilation [2] | emergence from general anesthesia ([1]; isoflurane general anesthesia)
1 | O=C(CCCN1CC=C(n2c(=O)[nH]c3ccccc32)CC1)c1ccc(F)cc1 [droperidol] | inhibited |  | 
2 | COC(=O)C(c1ccccc1)C1CCCCN1 (stereo not drawn) [methylphenidate] |  | increases minute ventilation | actively induces emergence
